Test results reported in patent US20240075160A1, “COMBINATION THERAPIES FOR TREATMENT OF CANCER” (MedImmune, LLC, priority 2022, published 2024).

Legend:
human IFN-7 = assay: IFN-γ release in supernatants of co-culture of tumor cells and tumor reactive CD8+ T cells (Mesoscale ELISA); format: cell-based; settings: MART-1 reactive T cell-PC9 co-culture
Method: Antigen specific CD8+ T-cells secrete IFN-γ upon tumor antigen recognition. To evaluate the amount of IFN-7 detected within the supernatants of co-cultures containing PC9-MART1-GFP tumor cells and tumor reactive CD8+ T cells, separate parallel co-cultures were established in Nunc 96 well plates (Sigma Aldrich) alongside the Incucyte optical plates. For evaluation of IFN-7 release, supernatants were harvested from co-cultures in the Nunc 96 well plates 24, 72 and 144 hours later. IFN-7 was measured using Mesoscale Discovery multi-spot ELISA for human IFN-7 as per the manufacturer's instructions. […] For the MART-1 tumor antigen reactive T cell-PC9 lung adenocarcinoma co-culture, IFN-7 secretion by T cells was retained in the presence of the hRS7(TROP2)-TOP1i ADC alone, AZD2936 and MEDI5752 both alone and in combination with the ADC, FIG. 4C-4D. AZD7789 enhanced IFN-7, which was retained in combination with the hRS7(TROP2)-TOP1i ADC FIG. 4E.

PC9-MART1-GFP cells = assay: T cell mediated cytolysis in co-culture of MART-1 reactive CD8+ T cells and tumor cells (Incucyte, loss of GFP); format: cell-based; settings: single agent; bispecific 2 nM, ADC 0.05 μg/ml; E:T 4:1 or 5:1; five days after T cell addition
Method: A co-culture assay system was developed which utilized melanoma antigen Melan A (MART-1) reactive T cells and PC9 lung adenocarcinoma cells engineered to express both the MART-1 antigen and Green Fluorescent Protein (GFP). Tumor cell lysis was evaluated utilizing the Sartorius Incucyte Live Cell Analysis System whereby loss of GFP signal intensity was used as a surrogate marker for cell death. Briefly, PC9-MART1-GFP cells were harvested from cell culture flasks using trypsin, washed once with complete RPMI media as defined in Example 1, resuspended and added to each well of 96 well clear bottom, opaque walled optical plates for 24 hours at 37° C. in 5% CO2 as per the manufacturer's instructions. The PD-1-TIGIT (AZD2936), PD-1-TIM3 (AZD7789) or PD-1-CTLA4 (MEDI5752) bispecific antibodies were used at 2 nM concentration. The hRS7(TROP2)-TOP1i ADC was used at 0.05 μg/ml. Treatments were added alone or in combination to wells immediately before rested, antigen-specific CD8+ T cells were added at effector to target (E:T) ratios of 4:1 or 5:1 effector T cells to target tumor cells depending on the donor. Tumor cell death and percent cytolysis were measured five days after T cell addition by image analysis of GFP intensity per well. Data are from experiments with 3 unique donors. Statistical significance for the indicated comparisons is denoted as * p<0.05, ** p<0.01, p<0.001.

[1] = agent alone, supernatants at 24, 72 and 144 hours
[2] = in combination with the hRS7(TROP2)-TOP1i ADC

Row | Substance | IFN-7 secretion by T cells (human IFN-7; [1]) | IFN-7 secretion by T cells (human IFN-7; [2]) | T cell mediated cytolysis of PC9 tumor cells (PC9-MART1-GFP cells)
1 | AZD2936: PD-1-TIGIT bispecific antibody | retained | retained | enhanced
2 | AZD7789: anti-TIM-3/PD-1 bispecific binding protein comprising sequences of monoclonal antibody 013-1 (TIM-3) and LO115 (PD-1) | enhanced | retained | enhanced
3 | MEDI5752: anti-PD-1/CTLA-4 bispecific antibody | retained | retained | enhanced
